According to paper PMC7366380, “Discovery of a Potent and Selective Covalent Inhibitor and Activity-Based Probe for the Deubiquitylating Enzyme UCHL1, with Antifibrotic Activity” (Journal of the American Chemical Society, 2020):
Values joined by “and” are separate entries in the source; they are usually repeats but may differ in a detail not shown here. Equal entries are not always repeated.

What was measured:
Assay in all cases: In-cell proteome-wide competitive ABPP, HEK293: other DUBs and proteins
[1] = molecular target: T1, DUBs and other proteins in HEK293 cells (Homo sapiens, UniProt P45974); conditions: replicates A-C; for Log2 reporter intensity values: USP5: DMSO substract (FC); for Log2 reporter intensity values: USP5, DMSO subtracted
T1 sequence (P45974 1-858): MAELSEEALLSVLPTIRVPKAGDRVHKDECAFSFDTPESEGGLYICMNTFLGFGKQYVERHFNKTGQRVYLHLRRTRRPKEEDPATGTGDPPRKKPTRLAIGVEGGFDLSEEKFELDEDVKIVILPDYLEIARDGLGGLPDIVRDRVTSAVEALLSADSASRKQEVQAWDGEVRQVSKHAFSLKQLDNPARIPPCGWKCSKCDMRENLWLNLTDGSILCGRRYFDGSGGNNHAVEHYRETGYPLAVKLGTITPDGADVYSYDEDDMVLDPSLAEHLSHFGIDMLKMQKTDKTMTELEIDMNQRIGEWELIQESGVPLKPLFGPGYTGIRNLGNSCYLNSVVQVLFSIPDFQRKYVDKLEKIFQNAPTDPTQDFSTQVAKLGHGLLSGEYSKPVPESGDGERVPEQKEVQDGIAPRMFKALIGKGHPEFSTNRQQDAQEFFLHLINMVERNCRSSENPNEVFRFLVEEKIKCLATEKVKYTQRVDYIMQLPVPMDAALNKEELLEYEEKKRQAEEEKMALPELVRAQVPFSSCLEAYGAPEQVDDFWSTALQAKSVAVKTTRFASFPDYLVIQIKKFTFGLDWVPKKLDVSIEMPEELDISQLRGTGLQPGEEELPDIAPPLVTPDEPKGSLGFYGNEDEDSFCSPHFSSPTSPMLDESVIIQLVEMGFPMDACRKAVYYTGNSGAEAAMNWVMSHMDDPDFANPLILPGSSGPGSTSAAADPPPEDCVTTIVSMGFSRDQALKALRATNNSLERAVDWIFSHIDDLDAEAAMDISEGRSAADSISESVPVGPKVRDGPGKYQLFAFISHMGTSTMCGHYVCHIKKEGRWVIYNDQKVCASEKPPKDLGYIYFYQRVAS

[2] = molecular target: DUBs and other proteins in HEK293 cells (Homo sapiens, UniProt Q14694); conditions: replicates A-C; for Log2 reporter intensity values: USP10: competition with ABP 2, DMSO substract (FC); for Log2 reporter intensity values: USP10, DMSO subtracted
[3] = molecular target: T2, DUBs and other proteins in HEK293 cells (Homo sapiens, UniProt Q86UV5); conditions: for Log2 reporter intensity values: USP48: DMSO substract (FC), replicates A-B; for Log2 reporter intensity values: USP48, DMSO subtracted
T2 sequence (Q86UV5 1-1035): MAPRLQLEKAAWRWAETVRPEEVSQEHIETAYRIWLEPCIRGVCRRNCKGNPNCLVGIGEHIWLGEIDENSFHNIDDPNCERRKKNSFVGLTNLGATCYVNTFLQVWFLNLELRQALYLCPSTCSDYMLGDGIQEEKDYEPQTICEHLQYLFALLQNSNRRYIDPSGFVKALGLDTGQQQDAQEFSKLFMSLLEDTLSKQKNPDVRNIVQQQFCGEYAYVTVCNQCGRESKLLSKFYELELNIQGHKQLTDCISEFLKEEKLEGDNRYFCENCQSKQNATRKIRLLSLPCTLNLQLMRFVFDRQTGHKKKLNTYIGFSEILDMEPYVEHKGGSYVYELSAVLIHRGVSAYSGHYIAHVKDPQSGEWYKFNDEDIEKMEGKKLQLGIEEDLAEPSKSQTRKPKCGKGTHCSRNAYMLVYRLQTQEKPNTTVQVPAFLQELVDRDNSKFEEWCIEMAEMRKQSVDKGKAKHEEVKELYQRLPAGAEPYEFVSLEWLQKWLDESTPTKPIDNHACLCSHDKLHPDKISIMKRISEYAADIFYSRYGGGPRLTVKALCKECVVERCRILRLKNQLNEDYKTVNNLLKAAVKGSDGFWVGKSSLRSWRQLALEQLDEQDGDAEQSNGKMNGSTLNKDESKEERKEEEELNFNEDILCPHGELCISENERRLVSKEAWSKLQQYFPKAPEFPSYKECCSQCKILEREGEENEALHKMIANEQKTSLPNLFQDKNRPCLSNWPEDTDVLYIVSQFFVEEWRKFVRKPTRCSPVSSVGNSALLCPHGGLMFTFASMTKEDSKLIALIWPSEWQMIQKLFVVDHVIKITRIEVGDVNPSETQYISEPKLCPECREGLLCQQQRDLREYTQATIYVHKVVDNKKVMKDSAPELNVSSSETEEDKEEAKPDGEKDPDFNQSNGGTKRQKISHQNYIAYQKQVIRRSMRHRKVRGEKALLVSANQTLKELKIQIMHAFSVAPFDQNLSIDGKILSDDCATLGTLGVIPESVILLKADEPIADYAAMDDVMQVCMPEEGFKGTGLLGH

[4] = 1 at 1 μM, competition with ABP 2
[5] = 1 at 4 μM, competition with ABP 2
[6] = 3 at 1 μM, competition with ABP 2
[7] = 3 at 4 μM, competition with ABP 2
[8] = LDN at 5 μM, competition with ABP 2
[9] = LDN at 25 μM, competition with ABP 2

Chain of DUBs and other proteins in HEK293 cells (Homo sapiens, UniProt Q14694) (Q14694 whole entry): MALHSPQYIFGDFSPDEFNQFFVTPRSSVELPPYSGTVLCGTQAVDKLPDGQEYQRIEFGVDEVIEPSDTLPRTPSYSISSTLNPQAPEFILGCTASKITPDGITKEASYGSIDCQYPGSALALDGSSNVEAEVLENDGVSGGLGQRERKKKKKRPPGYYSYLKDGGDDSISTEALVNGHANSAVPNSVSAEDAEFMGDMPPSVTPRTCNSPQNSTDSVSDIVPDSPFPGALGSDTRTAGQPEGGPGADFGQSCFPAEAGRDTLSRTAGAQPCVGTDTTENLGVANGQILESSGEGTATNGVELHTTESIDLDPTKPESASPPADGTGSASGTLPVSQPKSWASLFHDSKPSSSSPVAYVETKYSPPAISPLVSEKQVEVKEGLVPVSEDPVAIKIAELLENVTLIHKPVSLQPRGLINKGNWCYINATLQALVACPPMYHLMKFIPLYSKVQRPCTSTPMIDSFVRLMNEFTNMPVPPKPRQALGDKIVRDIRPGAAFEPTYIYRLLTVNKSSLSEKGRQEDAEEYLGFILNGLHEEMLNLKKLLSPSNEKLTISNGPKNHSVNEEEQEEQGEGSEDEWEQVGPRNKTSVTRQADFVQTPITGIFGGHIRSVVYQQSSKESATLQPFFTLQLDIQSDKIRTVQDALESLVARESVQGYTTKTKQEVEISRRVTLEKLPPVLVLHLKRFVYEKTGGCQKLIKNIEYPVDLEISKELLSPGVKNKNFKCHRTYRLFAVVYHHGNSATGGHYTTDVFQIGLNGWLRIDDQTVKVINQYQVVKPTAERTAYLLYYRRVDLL

Compound: N#CN1CCC[C@H]1C(=O)N1CCc2c(-c3c[nH]c4ncccc34)cccc21 [Compound 1]
- Log2 reporter intensity values: USP5 [1, 4]: 0.9731 and 0.9825 and 0.9558
- Log2 reporter intensity values: USP5 [1, 5]: 0.9723 and 0.9393 and 0.9714
- Log2 reporter intensity values ([1]; 1_1 μM): -0.02722 and -0.01785 and -0.04454
- Log2 reporter intensity values ([1]; 1_4 μM): -0.02801 and -0.06107 and -0.02897
- Log2 reporter intensity values ([1]; 1 at 1 μM): -0.03934 and -0.0255 and -0.06525
- Log2 reporter intensity values ([1]; 1 at 4 μM): -0.04051 and -0.09041 and -0.04193
- Log2 reporter intensity values: USP10 ([2]; 1 at 1 μM): 0.8161 and 0.9562 and 0.9573
- Log2 reporter intensity values: USP10 ([2]; 1 at 4 μM): 0.9286 and 0.9489 and 0.874
- Log2 reporter intensity values ([2]; 1_1 μM): -0.1848 and -0.04476 and -0.04368
- Log2 reporter intensity values ([2]; 1_4 μM): -0.07234 and -0.05211 and -0.1269
- Log2 reporter intensity values ([2]; 1 at 1 μM): -0.2931 and -0.06461 and -0.06297
- Log2 reporter intensity values ([2]; 1 at 4 μM): -0.1068 and -0.07574 and -0.1942
- Log2 reporter intensity values: USP48 [3, 4]: 1.114 and 0.9292
- Log2 reporter intensity values: USP48 [3, 5]: 1.018 and 0.949
- Log2 reporter intensity values ([3]; 1_1 μM, replicates A-B (C NaN)): 0.113 and -0.07208
- Log2 reporter intensity values ([3]; 1_4 μM, replicates A-B (C NaN)): 0.01672 and -0.0523
- Log2 reporter intensity values ([3]; 1 at 1 μM, replicates A-C): 0.1561 and -0.1059
- Log2 reporter intensity values ([3]; 1 at 4 μM, replicates A-C): 0.02574 and -0.07554

Compound: C#Cc1cnc2[nH]cc(-c3cccc4c3CCN4C(=O)[C@@H]3CCCN3C#N)c2c1 [Compound 2]
- Log2 reporter intensity values: USP5 ([1]; 20 nM ABP 2 alone): 0.9172 and 0.9432 and 0.9583
- Log2 reporter intensity values ([1]; 20 nM ABP 2): -0.1247 and -0.08438 and -0.06148 and -0.08313 and -0.05714
- Log2 reporter intensity values: USP48 ([3]; 20 nM ABP 2 alone): 0.9588 and 0.9788
- Log2 reporter intensity values ([3]; 20 nM ABP 2, replicates A-B (C NaN)): -0.04252 and -0.02245
- Log2 reporter intensity values ([3]; 20 nM ABP 2, replicates A-C): -0.06076 and -0.03088

Compound: N#CN1CCC[C@@H]1C(=O)N1CCc2c(-c3c[nH]c4ncccc34)cccc21 [Compound 3]
- Log2 reporter intensity values: USP5 [1, 6]: 0.9394 and 0.9901 and 0.9848
- Log2 reporter intensity values: USP5 [1, 7]: 1.005 and 1.031 and 1.063
- Log2 reporter intensity values ([1]; 3_1 μM): -0.06093 and -0.01022 and -0.01553
- Log2 reporter intensity values ([1]; 3_4 μM): 0.004396 and 0.03114 and 0.06231
- Log2 reporter intensity values ([1]; 3 at 1 μM): -0.0902 and -0.01435 and -0.02211
- Log2 reporter intensity values ([1]; 3 at 4 μM): 0.006795 and 0.04469 and 0.08765
- Log2 reporter intensity values: USP10 ([2]; 3 at 1 μM): 0.9243 and 0.9306 and 0.9846
- Log2 reporter intensity values: USP10 ([2]; 3 at 4 μM): 0.9265 and 0.935 and 0.9597
- Log2 reporter intensity values ([2]; 3_1 μM): -0.07662 and -0.07034 and -0.01633
- Log2 reporter intensity values ([2]; 3_4 μM): -0.07444 and -0.066 and -0.04125
- Log2 reporter intensity values ([2]; 3 at 1 μM): -0.1135 and -0.1037 and -0.02233
- Log2 reporter intensity values ([2]; 3 at 4 μM): -0.1101 and -0.09701 and -0.05932
- Log2 reporter intensity values: USP48 [3, 6]: 1.063 and 0.8844
- Log2 reporter intensity values: USP48 [3, 7]: 0.8635 and 1.157
- Log2 reporter intensity values ([3]; 3_1 μM, replicates A-B (C NaN)): 0.06169 and -0.1169
- Log2 reporter intensity values ([3]; 3_4 μM, replicates A-B (C NaN)): -0.1378 and 0.156
- Log2 reporter intensity values ([3]; 3 at 1 μM, replicates A-C): 0.08809 and -0.1773
- Log2 reporter intensity values ([3]; 3 at 4 μM, replicates A-C): -0.2118 and 0.2108

Compound: CC(=O)O/N=C1\C(=O)N(Cc2cc(Cl)ccc2Cl)c2ccc(Cl)cc21 [LDN]
- Log2 reporter intensity values: USP5 [1, 8]: 1.037 and 0.9788 and 0.9532
- Log2 reporter intensity values: USP5 [1, 9]: 1.021 and 0.9648 and 0.9864
- Log2 reporter intensity values ([1]; LDN at 5 μM): 0.05306 and -0.03094 and -0.06922
- Log2 reporter intensity values ([1]; LDN at 25 μM): 0.02936 and -0.0517 and -0.01971
- Log2 reporter intensity values ([1]; LDN_5 μM): 0.03714 and -0.02154 and -0.04717
- Log2 reporter intensity values ([1]; LDN_25 μM): 0.02024 and -0.03553 and -0.01389
- Log2 reporter intensity values: USP10 ([2]; LDN at 5 μM): 0.9581 and 0.8382 and 0.9082
- Log2 reporter intensity values: USP10 ([2]; LDN at 25 μM): 0.9726 and 0.903 and 0.8841
- Log2 reporter intensity values ([2]; LDN at 5 μM): -0.06168 and -0.2546 and -0.1389
- Log2 reporter intensity values ([2]; LDN at 25 μM): -0.04009 and -0.1472 and -0.1778
- Log2 reporter intensity values ([2]; LDN_5 μM): -0.04282 and -0.1627 and -0.09278
- Log2 reporter intensity values ([2]; LDN_25 μM): -0.02837 and -0.09796 and -0.1169
- Log2 reporter intensity values: USP48 [3, 8]: 1.048 and 1.119
- Log2 reporter intensity values: USP48 [3, 9]: 1.118 and 1.08
- Log2 reporter intensity values ([3]; LDN at 5 μM, replicates A-C): 0.0673 and 0.1618
- Log2 reporter intensity values ([3]; LDN at 25 μM, replicates A-C): 0.1604 and 0.1117
- Log2 reporter intensity values ([3]; LDN_5 μM, replicates A-B (C NaN)): 0.04647 and 0.1174
- Log2 reporter intensity values ([3]; LDN_25 μM, replicates A-B (C NaN)): 0.1163 and 0.0792
